ChEMBL document CHEMBL1909046, “DrugMatrix in vitro pharmacology data”

Legend:
Cytochrome P450 2E1 = Cytochrome P450 2E1 (Homo sapiens, UniProt P05181); conditions: bti-tn-5b1-4; further: in other assays of this panel Not Active means under 50% inhibition at 10 µM
Vasopressin V1a receptor = Vasopressin V1a receptor (Homo sapiens, UniProt P37288); assay type: cell membranes, Membrane; conditions: hek293; further: in other assays of this panel Not Active means under 50% inhibition at 10 µM
[1] = molecular target: C-C chemokine receptor type 5 (Homo sapiens, UniProt P51681); assay type: cell membranes, Membrane; conditions: hek293; further: in other assays of this panel Not Active means under 50% inhibition at 10 µM
C-C chemokine receptor type 5, sequence (P51681 whole entry): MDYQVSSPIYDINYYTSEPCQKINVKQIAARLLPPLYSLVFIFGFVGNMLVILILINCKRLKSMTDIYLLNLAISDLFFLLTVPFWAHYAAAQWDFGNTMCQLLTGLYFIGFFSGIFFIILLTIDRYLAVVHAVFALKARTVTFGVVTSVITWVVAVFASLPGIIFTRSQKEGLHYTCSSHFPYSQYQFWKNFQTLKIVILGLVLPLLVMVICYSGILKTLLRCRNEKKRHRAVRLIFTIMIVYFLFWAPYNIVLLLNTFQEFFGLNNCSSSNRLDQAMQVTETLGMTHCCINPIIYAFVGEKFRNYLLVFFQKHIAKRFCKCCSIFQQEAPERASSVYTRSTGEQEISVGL

D(3) dopamine receptor = D(3) dopamine receptor (Homo sapiens, UniProt P35462); experiment: DRUGMATRIX: Dopamine D3 radioligand binding (ligand: [3H] Spiperone); assay type: cell membranes, CHO, Membrane; conditions: cho
D(3) dopamine receptor, sequence (P35462 whole entry): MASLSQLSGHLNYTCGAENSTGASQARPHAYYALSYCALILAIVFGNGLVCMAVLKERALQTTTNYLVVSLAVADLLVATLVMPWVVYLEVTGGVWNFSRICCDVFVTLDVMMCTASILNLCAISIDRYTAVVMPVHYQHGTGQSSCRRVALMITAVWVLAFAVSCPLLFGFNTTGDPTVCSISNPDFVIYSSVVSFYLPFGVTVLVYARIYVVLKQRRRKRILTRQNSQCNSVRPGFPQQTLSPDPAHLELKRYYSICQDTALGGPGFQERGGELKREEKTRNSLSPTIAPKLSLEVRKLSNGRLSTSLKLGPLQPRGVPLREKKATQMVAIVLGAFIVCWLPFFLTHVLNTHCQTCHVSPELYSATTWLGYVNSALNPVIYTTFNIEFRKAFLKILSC

Glycine receptor = Glycine receptor (Rattus norvegicus, UniProt P22771+P24524+P07727+P20781); assay type: cell membranes, Wistar, Spinal cord, Membrane; further: in other assays of this panel Not Active means under 50% inhibition at 10 µM
Progesterone receptor = molecular target: T1, Progesterone receptor (Bos taurus, UniProt Q690N0); experiment: DRUGMATRIX: Progesterone radioligand binding (ligand: [3H] R-5020); assay type: tissue-based, Uterus; conditions: Not Active = under 50% inhibition at 10 µM
T1 sequence (Q690N0 whole entry): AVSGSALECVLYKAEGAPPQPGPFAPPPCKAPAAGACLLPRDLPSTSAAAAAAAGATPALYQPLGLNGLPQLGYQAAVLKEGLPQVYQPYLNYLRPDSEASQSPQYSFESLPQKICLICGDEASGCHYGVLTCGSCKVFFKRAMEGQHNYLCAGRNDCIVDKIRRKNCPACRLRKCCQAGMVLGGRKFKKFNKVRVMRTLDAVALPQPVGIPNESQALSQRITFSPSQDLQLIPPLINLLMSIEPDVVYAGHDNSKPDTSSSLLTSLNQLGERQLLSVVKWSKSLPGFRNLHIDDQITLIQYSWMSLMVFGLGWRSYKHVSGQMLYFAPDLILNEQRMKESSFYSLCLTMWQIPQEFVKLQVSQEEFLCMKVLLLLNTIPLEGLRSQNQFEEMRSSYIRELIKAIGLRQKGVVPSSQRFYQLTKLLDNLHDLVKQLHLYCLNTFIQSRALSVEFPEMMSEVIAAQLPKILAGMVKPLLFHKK

[2] = molecular target: T2, C-C chemokine receptor type 4 (Homo sapiens, UniProt P51679); assay type: cell membranes, Membrane; conditions: chem-1; further: in other assays of this panel Not Active means under 50% inhibition at 10 µM
T2 sequence (P51679 whole entry): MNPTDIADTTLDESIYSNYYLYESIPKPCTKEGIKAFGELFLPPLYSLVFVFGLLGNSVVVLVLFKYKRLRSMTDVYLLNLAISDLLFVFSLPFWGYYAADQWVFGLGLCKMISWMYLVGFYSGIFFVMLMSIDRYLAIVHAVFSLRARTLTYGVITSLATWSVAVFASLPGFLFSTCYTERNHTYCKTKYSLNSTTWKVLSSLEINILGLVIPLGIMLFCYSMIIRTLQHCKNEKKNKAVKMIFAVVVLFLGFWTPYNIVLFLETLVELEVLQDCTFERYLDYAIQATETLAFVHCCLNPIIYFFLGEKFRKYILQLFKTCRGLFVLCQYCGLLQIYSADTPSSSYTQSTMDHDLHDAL

Cytochrome P450 2E1, sequence (P05181 whole entry): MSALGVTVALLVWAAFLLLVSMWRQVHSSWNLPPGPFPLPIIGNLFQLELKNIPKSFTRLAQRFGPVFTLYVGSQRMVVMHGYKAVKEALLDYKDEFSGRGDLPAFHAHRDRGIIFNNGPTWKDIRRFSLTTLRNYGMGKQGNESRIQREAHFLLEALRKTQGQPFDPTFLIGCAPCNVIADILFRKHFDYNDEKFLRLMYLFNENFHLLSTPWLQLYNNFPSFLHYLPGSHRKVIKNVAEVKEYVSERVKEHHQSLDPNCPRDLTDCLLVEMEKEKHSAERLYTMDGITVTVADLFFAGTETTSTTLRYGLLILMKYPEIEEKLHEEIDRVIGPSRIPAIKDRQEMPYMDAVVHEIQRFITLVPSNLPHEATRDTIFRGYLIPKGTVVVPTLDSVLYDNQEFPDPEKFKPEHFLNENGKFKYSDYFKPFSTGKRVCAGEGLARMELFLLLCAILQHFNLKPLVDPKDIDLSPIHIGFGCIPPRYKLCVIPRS
Vasopressin V1a receptor, sequence (P37288 whole entry): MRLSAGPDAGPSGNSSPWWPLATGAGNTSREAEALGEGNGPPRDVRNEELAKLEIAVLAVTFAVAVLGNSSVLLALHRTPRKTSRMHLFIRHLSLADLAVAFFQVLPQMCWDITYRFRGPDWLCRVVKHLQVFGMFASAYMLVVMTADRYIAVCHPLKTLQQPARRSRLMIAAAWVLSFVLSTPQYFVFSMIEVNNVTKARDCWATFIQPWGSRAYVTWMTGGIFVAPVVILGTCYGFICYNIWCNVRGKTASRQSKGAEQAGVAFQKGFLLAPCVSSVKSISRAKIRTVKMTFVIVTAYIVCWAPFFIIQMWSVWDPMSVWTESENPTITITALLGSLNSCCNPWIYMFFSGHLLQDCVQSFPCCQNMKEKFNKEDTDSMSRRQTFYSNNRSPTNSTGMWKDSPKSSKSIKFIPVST

Row | SMILES | IC50 (Cytochrome P450 2E1) | Ki (Cytochrome P450 2E1) | IC50 (Vasopressin V1a receptor) | IC50 [1] | IC50 (D(3) dopamine receptor) | IC50 (Glycine receptor) | IC50 (Progesterone receptor) | IC50 [2] | IC50 (Progesterone receptor; read-out: IC50) [nM] | Ki (Progesterone receptor; read-out: Ki) [nM]
1 | OCCO [ETHYLENE GLYCOL] | Not Active | Not Active | Not Active | Not Active | Not Active | Not Active | Not Active | Not Active | – | –
2 | NC[C@@H]1O[C@H](O[C@H]2[C@@H](O)[C@H](O[C@@H]3[C@@H](O)[C@H](N)C[C@H](N)[C@H]3O[C@H]3O[C@H](CN)[C@@H](O)[C@H](O)[C@H]3N)O[C@@H]2CO)[C@H](N)[C@@H](O)[C@@H]1O [FRAMYCETIN] | Not Active | Not Active | Not Active | Not Active | Not Active | Not Active | Not Active | Not Active | – | –
3 | COc1ccccc1OCC(O)CO (stereo not given) [GUAIFENESIN] | – | – | Not Active | Not Active | Not Active | Not Active | Not Active | Not Active | – | –
4 | N=C(N)N/N=C/c1c(Cl)cccc1Cl [GUANABENZ] | Not Active | Not Active | Not Active | Not Active | Not Active | Not Active | Not Active | Not Active | – | –
5 | C[C@]12CCC(=O)C=C1CC[C@@H]1[C@@H]2[C@@H](O)C[C@@]2(C)[C@H]1CC[C@]2(O)C(=O)CO [HYDROCORTISONE] | Not Active | Not Active | Not Active | Not Active | Not Active | Not Active | Not Active | Not Active | – | –
6 | CC(C(=O)O)c1ccc(CC2CCCC2=O)cc1 (stereo not given) [LOXOPROFEN] | Not Active | Not Active | Not Active | Not Active | Not Active | Not Active | Not Active | Not Active | – | –
7 | CC(=O)O[C@]1(C(C)=O)CC[C@H]2[C@@H]3C=C(C)C4=CC(=O)CC[C@]4(C)[C@H]3CC[C@@]21C [MEGESTROL ACETATE] | Not Active | Not Active | Not Active | Not Active | Not Active | Not Active | – | Not Active | 11 | 1.44
8 | CN(Cc1cnc2nc(N)nc(N)c2n1)c1ccc(C(=O)N[C@@H](CCC(=O)O)C(=O)O)cc1 [METHOTREXATE] | Not Active | Not Active | Not Active | Not Active | Not Active | Not Active | Not Active | Not Active | – | –
9 | COC(=O)c1ccccc1O [METHYL SALICYLATE] | Not Active | Not Active | Not Active | Not Active | Not Active | Not Active | Not Active | Not Active | – | –
10 | O=C(O)c1cccnc1 [NIACIN] | Not Active | Not Active | Not Active | Not Active | Not Active | Not Active | Not Active | Not Active | – | –
11 | CC(C)(CO)C(O)C(=O)NCCCO (stereo not given) [PANTHENOL] | Not Active | Not Active | Not Active | Not Active | Not Active | Not Active | Not Active | Not Active | – | –
12 | COc1ccc(Cc2nccc3cc(OC)c(OC)cc23)cc1OC [PAPAVERINE] | Not Active | Not Active | Not Active | Not Active | Not Active | Not Active | Not Active | Not Active | – | –
